Patent US20240382497A1, “PROPHYLACTIC OR THERAPEUTIC AGENT FOR HYPOXIC INJURY, ISCHAEMIA-REPERFUSION INJURY AND INFLAMMATION, CELL PROTECTION AGENT FOR TRANSPLANTATION, AND BIO-PRESERVATION AGENT” (priority 2018, published 2024)

Legend:
C57/BL6N male mice [1] = assay: Survival time in 4% oxygen after intraperitoneal NaHS or 2-methylthiophene; type: in vivo, mouse; conditions: 200 μl i.p. of 1% solution; all individuals; observation time of 30 min
Method: Thus, the survival time was measured at the remaining three concentrations. As a control, the survival time of the mice intraperitoneally injected with saline or 2-methylthiophene (1% solution) in 4% oxygen was measured.

TNF-α = assay: Blood TNF-α after LPS and 4E2MT, Trpa1 knockout and control mice; type: in vivo, mouse; conditions: 1 hr after simultaneous i.p. administration with LPS
Method: Lipopolysaccharide (LPS) (0.6 mg/kg) was intraperitoneally administered to male Balb/c mice (about 2-3 months old) to generate a sepsis model. Immediately after the LPS administration, 200 μl (about 80 mg/kg) of a solution prepared by diluting various heterocyclic compounds and isothiocyanate compounds 100 times with saline was intraperitoneally administered. Blood samples were collected 60 min after LPS and compound administration, EDTA plasma was prepared, and the blood level of inflammatory cytokine TNF-a was measured by the ELISA method.
Changes in the body surface temperature, survival time under a hypoxic environment, and TNF-α production in blood by LPS administration induced by intraperitoneally administration of thiazoline-related compound (4-ethyl-2-methyl-2-thiazoline; 4E2MT) measured by a method similar to those in Example 3, Example 10, or Example 18.

male C57/BL6N mouse = assay: Survival time in 4% oxygen after Trpa1 agonist i.p.; type: in vivo; conditions: wild-type mouse; i.p. Δ9-THC 10 mg/kg, AITC 40 mg/kg, APAP 300 mg/kg; 30 min before 4% oxygen; versus saline
Method: (§1) Saline or known Trpa1 agonists Δ9-tetrahydrocannabinol (Δ^9-THC; 10 mg/kg), allyl isothiocyanate (AITC; 40 mg/kg), or acetaminophen (APAP; 300 mg/kg) was intraperitoneally administered to male C57/BL6N mouse (about 3-month-old) and, 30 min later, the mouse was placed in a tight box with adjusted oxygen concentration of 4%, and the survival time of the mouse was measured for 30 min at maximum. As to APAP, the survival time in 4% oxygen environment was also measured using male Trpa1 knockout and littermate hetero mice (about 3-to 6-month-old).

[2] = tested on: Trpa1 knockout and littermate hetero mice; assay: Survival time in 4% oxygen after APAP i.p., Trpa1 knockout and hetero mice; type: in vivo, mouse; conditions: 300 mg/kg i.p., versus saline
Method: as §1

[3] = Yu et al., Cell Physiol Biochem 36: 1539-1551, 2015; cited from earlier work
C57/BL6N male mice [4] = assay: Survival time in 4% oxygen after intraperitoneal administration; type: in vivo, mouse; conditions: Example 12, about 80 mg/kg i.p., 30 min before 4% oxygen, Kaplan-Meier, versus saline
Method: Influence of intraperitoneal administration of various kinds of heterocyclic compounds on the survival time of mouse under hypoxic environment was analyzed. The odor molecule was administered by a method of intraperitoneally injecting 200 μl (about 80 mg/kg, i.p.) of a solution diluted 100 times with saline and, 30 min later, the mice were placed in a tight box with adjusted oxygen concentration of 4%, and the survival time of the mouse was measured for 30 min at maximum. As a control, the survival time of the mice intraperitoneally injected with saline (control) was measured.
By a method similar to that in Example 10, influence of intraperitoneal administration of various isothiocyanate compounds (about 80 mg/kg, i.p.) on the survival time of mouse under hypoxic environment was analyzed.
About 3-month-old C57/BL6N male mice were intraperitoneally injected with 200 μl (about 80 mg/kg, i.p.) of a thiomorpholine solution diluted 100 times with saline and, 30 min later, the mice were placed in a tight box with adjusted oxygen concentration of 4%, and the survival time of the mouse was measured. As a control, the survival time of the mice intraperitoneally injected with saline was measured.

mice = assay: Oxygen consumption after intraperitoneal injection; type: in vivo, mouse; conditions: versus saline
Method: An influence of a thiazoline-related compound on the oxygen consumption was analyzed. The oxygen consumption was analyzed using an energy metabolism measurement device for small animals (ARCO-2000; ARCO SYSTEM). About 3-month-old C57/BL6N male mice were each placed in a measuring chamber and, after acclimation for about 2 hr, a thiazoline-related compound (2MT) was presented. The odors were presented by placing filter papers scented with 100 μl (104 mmol) of odor molecules in the measuring chamber. As a control, an experiment in which a filter paper dropped with saline was presented to the mice was also performed. The oxygen consumption was measured every one min. Mean oxygen consumption was calculated as the mean of 10 min before presenting odor and 20 min after presenting odor.
Changes in the oxygen consumption induced by intraperitoneal injection of heterocyclic compounds (2MT and Thiomorpholine (TMO) were measured by a method similar to that in Example 8.

[5] = tested on: wild-type and Trpa1 knockout mice; assay: Survival time in 4% oxygen, thiomorpholine i.p., wild-type and Trpa1 knockout mice; type: in vivo, mouse; conditions: about 80 mg/kg i.p.
Method: A heterocyclic compound (thiomorpholine) (200 μl, about 80 mg/kg) diluted 100 times with saline was intraperitoneally injected to male wild-type and Trpa1 knockout mice (about 3 to 6-month-old) and, 30 min later, the mice were placed in a tight box in which the oxygen concentration was adjusted to 4%, and the survival time of the mice was measured.

## Cc1cccs1 [2-methylthiophene]
C57/BL6N male mice [1]
  survival time in 4% oxygen: ≥ 30 min

## CCC1CSC(C)=N1 (stereo not drawn) [4E2MT, 4-ethyl-2-methyl-2-thiazoline]
TNF-α
  amount of TNF-α in blood (decreasing effect): this effect was suppressed

## CCCCCc1cc(O)c2c(c1)OC(C)(C)[C@@H]1CCC(C)=C[C@@H]21 [49-THC, Δ9-tetrahydrocannabinol]
Male C57/BL6N mouse
  survival time in 4% oxygen: extending the survival time

## C=CCN=C=S [AITC, allyl isothiocyanate]
Male C57/BL6N mouse
  survival time in 4% oxygen: extending the survival time

## CC(=O)Nc1ccc(O)cc1 [APAP, acetaminophen]
Male C57/BL6N mouse
  survival time in 4% oxygen: extending the survival time
[2]; Trpa1 knockout mice (Trpa1−/−)
  survival time in 4% oxygen: such effect was not observed
[2]; control mice (Trpa1+/−)
  survival time in 4% oxygen: extending the survival time

## [Na+].[SH-] [NaHS]
[3]
  protective effects in ischemia-reperfusion injury: protective effects in ischemia-reperfusion injury

## C1CSCCN1 [thiomorpholine]
C57/BL6N male mice [4]
  survival time in 4% oxygen (hypoxia resistance): produces hypoxia resistance
mice
  oxygen consumption: suppress the oxygen consumption
[5]; Trpa1 knockout mice (Trpa1−/−), compared with wild-type mouse
  survival time in 4% oxygen: survival time significantly decreased
[5]; wild-type mice (Trpa1+/+)
  survival time in 4% oxygen: significantly prolonging the survival time
